Test results as given in US5061729A, “Pharmaceutical composition and process for preparing the same” (priority 1988, dated 1991).
Where two headings read alike, the source gives them in different places.

Key:
[1] = mucolytic (viscosity-reducing) effect of sulfhydryl compounds; conditions: comparison of compounds containing a sulfhydryl group
[2] = tested on: pathogenic micro-organisms occurring in the discharges of patients suffering from chronic otitis; assay: treatment of the ear discharges by antibacterial agents (sensitivity, Table 2); format: cell-based; conditions: for A = therapeutically active (sensitive) / M = moderately active / R = inactive (resistant): number of cases of 510 examinations; for Act. = activity %: share of active cases, 510 examinations
Protocol: In the Department for Otorhinolaryngology of the Medical University of Debrecen, adult and child patients were examined to identify the types of pathogenic micro-organisms occurring in the discharges of patients suffering from chronic otitis (otitis media chronica); the discharges of 510 patients were analyzed for the bacterial infection.
Symbols used in Table 2:
0 = number of the cases not examined
A = therapeutically active (sensitive)

[3] = cited from earlier work
[4] = single-component treatment: 1% tobramycin solution in chronic mesotympanic otitis; format: in vivo, patients; conditions: 1% solution
Source text: (§1) Several compositions according to the invention were also studied with omitting one active ingredient of the composition in order to support the progressive character of the multi-active-component type composition according to the invention. These experiments led to the following results.

[5] = single-component treatment: 1% tobramycin solution in external otitis; format: in vivo, patients; conditions: 1% solution
Source text: as §1

[6] = single-component treatment: aqueous solutions of sulfhydryl compounds; format: in vivo, patients; conditions: acetylcysteine solution
[7] = rats; oral administration; cited from earlier work
[8] = mice; oral administration; cited from earlier work
[9] = dogs; oral administration; cited from earlier work
[10] = tested on: several gram-positive and gram-negative bacteria such as Pseudomonas aeruginosa; conditions: in vitro conditions; M. F. Parry et al.; cited from earlier work
[11] = with sulfhydryl-containing compounds, particularly acetylcysteine

Compound	A = therapeutically active (sensitive) [2]	M = moderately active [2]	R = inactive (resistant) [2]	Act. = activity % [2]	also measured
N[C@@H](CSCC(=O)O)C(=O)O [carbocysteine]	–	–	–	–	mucolytic effect [1]: mucolytic effect can also be shown
O=C(N[C@H](CO)[C@H](O)c1ccc([N+](=O)[O-])cc1)C(Cl)Cl [Chloramphenicol]	106	11	197	37.2%	–
CC1(C)S[C@@H]2[C@H](NC(=O)[C@H](N)c3ccccc3)C(=O)N2[C@H]1C(=O)O [Ampicillin]	72	11	120	40.8%	–
O=C(Cc1cccs1)N[C@@H]1C(=O)N2C(C(=O)[O-])=C(C[n+]3ccccc3)CS[C@H]12 [Cephaloridin]	170	27	182	51.9%	–
Polymyxin B	69	8	103	42.7%	–
[H]/N=C(/N)N[C@H]1[C@H](O)[C@@H](O)[C@H](O[C@@H]2O[C@@H](C)[C@](O)(C=O)[C@H]2O[C@@H]2O[C@@H](CO)[C@H](O)[C@@H](O)[C@@H]2NC)[C@@H](N/C(N)=N\[H])[C@@H]1O [Streptomycin]	39	42	87	48.2%	–
N[C@@H](CCC(=O)N[C@@H](CS)C(=O)NCC(=O)O)C(=O)O [glutathione]	–	–	–	–	mucolytic effect [1]: mucolytic effect can also be shown
O=C(O)C(S)C(S)C(=O)O (stereo not shown) [dimercaptosuccinate]	–	–	–	–	mucolytic effect [1]: mucolytic effect can also be shown
CC1(C)S[C@@H]2[C@H](NC(=O)[C@H](N)c3ccc(O)cc3)C(=O)N2[C@H]1C(=O)O [amoxicillin]	–	–	–	–	influence of sulfhydryl-containing compounds on absorption from the stomach [3, 11]: not disadvantageously influenced by the sulfhydryl-containing compounds
CCN(CC)C(=S)SSC(=S)N(CC)CC [disulfiram]	–	–	–	–	mucolytic effect [1]: mucolytic effect can also be shown
NC[C@H]1O[C@H](O[C@H]2[C@H](O)[C@@H](O[C@H]3O[C@H](CO)[C@@H](O)[C@H](N)[C@H]3O)[C@H](N)C[C@@H]2N)[C@H](N)C[C@@H]1O [Tobramycin, tobramycin]	116	86	61	79.2%	influence of sulfhydryl-containing compounds on absorption from the stomach ([3]; in vivo): not disadvantageously influenced by the sulfhydryl-containing compounds; substantial improvement of the pathological processes, % of patients [4]: about 60%; substantial improvement, % of patients [5]: ≤ 40%
CN(C)[C@@H]1C(=O)C(C(N)=O)=C(O)[C@@]2(O)C(=O)C3=C(O)c4c(O)cccc4[C@@](C)(O)[C@H]3C[C@@H]12 [Tetracyclin]	79	16	279	25.4%	–
CC(C)(CO)[C@@H](O)C(=O)NCCC(=O)NCCS [pantetheine]	–	–	–	–	mucolytic effect [1]: mucolytic effect can also be shown
C[C@H]1c2cccc(O)c2C(O)=C2C(=O)[C@]3(O)C(O)=C(C(N)=O)C(=O)[C@@H](N(C)C)[C@@H]3[C@@H](O)[C@@H]21 [doxycyclin]	–	–	–	–	influence of sulfhydryl-containing compounds on absorption from the stomach [3, 11]: not disadvantageously influenced by the sulfhydryl-containing compounds
CC(=O)N[C@@H](CS)C(=O)O [N-acetyl-L-cysteine]	–	–	–	–	character of the discharge under treatment [6]: rather took the form of a precipitate; mucolytic effect [1]: most useful mucolytic agent; LD50 [7]: 6000 mg/kg of body-weight; LD50 [8]: 3000 mg/kg of body-weight; LD50 [9]: 1000 mg/kg of body-weight; synergistic effect with several antibiotics [10]: shows a synergistic effect with several antibiotics
CC1(C)S[C@@H]2[C@H](NC(=O)Cc3ccccc3)C(=O)N2[C@H]1C(=O)O [Penicillin]	67	22	218	29.4%	–
COc1cccc(OC)c1C(=O)N[C@@H]1C(=O)N2[C@@H]1SC(C)(C)[C@@H]2C(=O)O [Meticillin]	146	27	95	64.6%	–
CC1(C)S[C@@H]2[C@H](NC(=O)C(C(=O)O)c3ccccc3)C(=O)N2[C@H]1C(=O)O (stereo partly shown) [Carbenicillin]	137	22	91	63.6%	–
Gentamycin	65	72	118	53.7%	–
O[C@H](CS)[C@@H](O)CS [dithioerythritol]	–	–	–	–	mucolytic effect [1]: mucolytic effect can also be shown
neomycin	27	13	5	88.9%	influence of sulfhydryl-containing compounds on absorption from the stomach ([3]; in vivo): not disadvantageously influenced by the sulfhydryl-containing compounds
Cc1onc(-c2ccccc2)c1C(=O)N[C@@H]1C(=O)N2[C@@H]1SC(C)(C)[C@@H]2C(=O)O [Oxacillin]	191	13	77	72.6%	–
CC[C@H]1OC(=O)[C@H](C)[C@@H](O[C@H]2C[C@@](C)(OC)[C@@H](O)[C@H](C)O2)[C@H](C)[C@@H](O[C@@H]2O[C@H](C)C[C@H](N(C)C)[C@H]2O)[C@](C)(O)C[C@@H](C)C(=O)[C@H](C)[C@@H](O)[C@]1(C)O [Erythromycin]	113	6	208	36.4%	influence of sulfhydryl-containing compounds on absorption from the stomach ([3]; in vivo): not disadvantageously influenced by the sulfhydryl-containing compounds
CO[C@H]1C[C@H](O[C@H]2[C@H](C)[C@@H](O[C@@H]3O[C@H](C)C[C@H](N(C)C)[C@H]3O)[C@@H](C)C[C@@]3(CO3)C(=O)[C@H](C)[C@@H](O)[C@@H](C)[C@@H](C)OC(=O)[C@@H]2C)O[C@@H](C)[C@@H]1O [Oleandomycin]	114	4	179	39.7%	–
